Results from ChEMBL document CHEMBL4619751, “Synthesis of novel spirobibenzopyrans as potent anticancer leads inducing apoptosis in HeLa cells” (Bioorg Med Chem Lett, 2020).
pIC50: −log10 of the molar value. Calls of active or inactive are those of the source. The calls are words filed in the database; no cut-off is given here.

How the values were obtained:
[1] = tested on: HeLa; assay: Cytotoxicity against human HeLa cells assessed as cell proliferation at 10 uM by MTT assay relative to control; assay type: functional; details: read-out: Activity
[2] = tested on: HeLa; assay: Cell cycle arrest in human HeLa cells assessed as accumulation at early G0/G1 phase at 10 uM measured after 48 hrs by FACS analysis; assay type: functional, cell-based
[3] = tested on: HeLa; assay: Induction of apoptosis in human HeLa cells assessed as nuclear fragmentation by acridine oranga/ethidium bromide staining based assay; assay type: functional, cell-based
[4] = tested on: HeLa; assay: Cytotoxicity against human HeLa cells assessed as growth inhibition by MTT assay; assay type: functional, cell-based
[5] = tested on: HeLa; assay: Cell cycle arrest in human HeLa cells assessed as accumulation at sub G0/G1 phase at 10 uM measured after 48 hrs by FACS analysis; assay type: functional, cell-based
[6] = tested on: HeLa; assay: Cell cycle arrest in human HeLa cells assessed as accumulation at middle G0/G1 phase at 10 uM measured after 48 hrs by FACS analysis; assay type: functional, cell-based
[7] = tested on: HeLa; assay: Cell cycle arrest in human HeLa cells assessed as accumulation at sub G0/G1 phase at 50 uM measured after 48 hrs by FACS analysis; assay type: functional, cell-based
[8] = tested on: HeLa; assay: Cell cycle arrest in human HeLa cells assessed as accumulation at S phase at 50 uM measured after 48 hrs by FACS analysis; assay type: functional, cell-based
[9] = tested on: HeLa; assay: Cell cycle arrest in human HeLa cells assessed as accumulation at S phase at 10 uM measured after 48 hrs by FACS analysis; assay type: functional, cell-based
[10] = tested on: HeLa; assay: Induction of apoptosis in human HeLa cells assessed as chromatin condensation by acridine oranga/ethidium bromide staining based assay; assay type: functional, cell-based
[11] = tested on: HeLa; assay: Induction of DNA damage in human HeLa cells assessed as tail DNA formation at IC50 by alkaline Comet assay; assay type: functional
[12] = tested on: HeLa; assay: Induction of DNA damage in human HeLa cells assessed as inhibition of DNA replication; assay type: functional, cell-based

| SMILES | growth at 10 µM [1] | pIC50 [4] | also measured |
| --- | --- | --- | --- |
| Clc1cc(Cl)c2c(c1)C=C1CCCCC3=Cc4cc(Cl)cc(Cl)c4OC13O2 | 102% | – | – |
| Clc1ccc2c(c1)C=C1CSCC3=Cc4cc(Cl)ccc4OC13O2 | 105% | – | – |
| COc1ccc2c(c1)C=C1CCCCC3=Cc4cc(OC)ccc4OC13O2 | 59.3% | 4.92 | Activity [2]: Active; Activity [3]: Active; Activity [5]: Active |
| Clc1ccc2c(c1)C=C1CCCCC3=Cc4cc(Cl)ccc4OC13O2 | 90.1% | – | – |
| Clc1ccc2c(c1)C=C1CCCC3=Cc4cc(Cl)ccc4OC13O2 | 105% | – | – |
| COc1ccc2c(c1)C=C1CCCC3=Cc4cc(OC)ccc4OC13O2 | 46.6% | 4.97 | Activity [6]: Active; Activity [7]: inactive; Activity [3]: Active; Activity [8]: inactive; Activity [9]: Active; Activity [5]: Active |
| COc1ccc2c(c1)OC13Oc4cc(OC)ccc4C=C1CCCC3=C2 | 62.1% | 4.87 | Activity [10]: Active; Activity [11]: 3.32 um; Activity [9]: Active; Activity [12]: Active; Activity [5]: Active |
| O=c1[nH]cc(F)c(=O)[nH]1 [FLUOROURACIL] | 73.7% | 4.82 | Activity [11]: 6.91 um |
| C1=C2CCCC3=Cc4ccccc4OC23Oc2ccccc21 | 77% | – | – |
| COc1ccc2c(c1)OC13Oc4cc(OC)ccc4C=C1CCCCC3=C2 | 108% | – | – |
| Brc1ccc2c(c1)C=C1CCCCC3=Cc4cc(Br)ccc4OC13O2 | 111% | – | – |
| C1=C2CCCCC3=Cc4ccccc4OC23Oc2ccccc21 | 80.2% | – | – |
